Here are results for eleven molecules from ChEMBL document CHEMBL1201862, “PubChem BioAssay data set” (2004).

Among the test systems are NCI-H226; NCI-H460; SR; CCRF-CEM; OVCAR-3; TK-10; UACC-62; PC-3; HT-29; SF-539; SK-MEL-5; HCT-15; 786-0; SF-295; BT-549; SNB-19; LOX IMVI; SN12C; KM12.
Holding throughout (assay): inhibition of tumour cell growth, NCI panel, 48 h

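Tested at 5 concentrations; 48 h exposure; 96-well plates; endpoints linearly interpolated, else capped at highest concentration. The concentration for 50% growth inhibition is given as GI50.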 Activity calls are given as the source filed them. Cut-off read from the data, not from the text of the source: active = GI50 up to about 1.1 µM and inactive = higher. A value given as a limit tells only on which side of the number the result lay.

`Cn1ccnc1Sc1ccc(/C=N\NC(=O)c2cccc(F)c2)cc1[N+](=O)[O-]`: the GI50 was > 100 µM (inactive) in the test with NCI-H226; > 100 µM (inactive) with NCI-H460; 33.2 µM (inactive) with SR; > 100 µM (inactive) with CCRF-CEM; 50 µM (inactive) in the test on OVCAR-3; > 100 µM (inactive) in the test with TK-10. Besides, the GI50 was 89.1 µM (inactive) in the test with UACC-62; 24 µM (inactive) in the test with PC-3; > 100 µM (inactive) in the test on HT-29; 25.9 µM (inactive) with SF-539; 56.4 µM (inactive) with SK-MEL-5; 78.7 µM with HCT-15. In addition, the GI50 with 786-0 is 31.9 µM (inactive); in the test with SF-295, 35.9 µM (inactive); in the test with BT-549, 40.8 µM (inactive); in the test on SNB-19, 27.8 µM (inactive); with LOX IMVI it was > 100 µM (inactive); in the test on SN12C it was 50.1 µM (inactive). In addition, in the test on KM12, the GI50 was > 100 µM (inactive).
In the case of `CN1C(=O)C(=CNc2ccc(Cl)cc2Cl)C(=O)N(C)C1=O`, the GI50 is > 100 µM (inactive) in the test with NCI-H226; > 100 µM (inactive) in the test on NCI-H460; > 100 µM (inactive) with SR; 13.9 µM (inactive) in the test with CCRF-CEM; > 100 µM (inactive) in the test with OVCAR-3; > 100 µM (inactive) in the test with TK-10. The GI50 in the test on UACC-62 was > 100 µM (inactive); in the test on PC-3, > 100 µM (inactive); in the test with HT-29, > 100 µM (inactive); in the test on SF-539 it was > 100 µM (inactive); with SK-MEL-5, > 100 µM (inactive); in the test with HCT-15, more than 100 µM. The GI50 in the test with 786-0, with SF-295, in the test on BT-549, with SNB-19, in the test on LOX IMVI and in the test on SN12C was > 100 µM (inactive) each time. Besides, the GI50 in the test on KM12 was > 100 µM (inactive).
Consider `COc1ccc(-c2[nH]c3c4c(nc5c(c24)C(=O)CC(C)(C)C5)CC(C)(C)C3)cc1`, for which the GI50 was 68.7 µM (inactive) in the test on NCI-H226; 72.3 µM (inactive) in the test on NCI-H460; 13.2 µM (inactive) in the test with SR; 11.4 µM (inactive) in the test on CCRF-CEM; 47.3 µM (inactive) in the test on OVCAR-3; > 100 µM (inactive) in the test with TK-10. Also, the GI50 in the test with UACC-62 is > 100 µM (inactive); with PC-3, 24.3 µM (inactive); with HT-29 it was 43.9 µM (inactive); in the test with SF-539, 67.6 µM (inactive); in the test with SK-MEL-5, 63.1 µM (inactive); with HCT-15, 54.2 µM. Further, the GI50 in the test on 786-0 is 32.2 µM (inactive); with SF-295, 57.4 µM (inactive); in the test on BT-549 it was 43.9 µM (inactive); with SNB-19, > 100 µM (inactive); in the test with LOX IMVI, 68.7 µM (inactive); in the test on SN12C it was 38.9 µM (inactive). Also, the GI50 in the test with KM12 is 40.4 µM (inactive).
Regarding `COC(=O)c1c(C)ccc2c(O)c3c(cc12)C(=O)c1c2c(cc(O)c1C3=O)C1(C)OC(C)(O2)C(O)C(N(C)C)C1O` (centres undefined), the GI50 in the test with NCI-H226 is 2.26 µM (inactive); in the test on NCI-H460, 0.681 µM (active); in the test with SR, 0.294 µM (active); with CCRF-CEM, 0.283 µM (active); in the test on OVCAR-3, 2.41 µM (inactive); with TK-10 it was 1.4 µM (inactive). The GI50 is 1.66 µM (inactive) in the test with UACC-62; 1.66 µM (inactive) in the test with PC-3; 0.577 µM (active) in the test on HT-29; 2.21 µM (inactive) with SF-539; 8.38 µM (inactive) in the test with SK-MEL-5; 1.46 µM in the test with HCT-15. In addition, the GI50 in the test on 786-0 was 0.767 µM (active); with SF-295, 1.81 µM (inactive); in the test on BT-549 it was 3.61 µM (inactive); in the test with SNB-19, 1.35 µM (inactive); in the test with LOX IMVI it was 1.24 µM (inactive); in the test on SN12C, 2.41 µM (inactive). Also, in the test with KM12, the GI50 was 1.42 µM (inactive).
Turning to `O=C(CN1CCOCC1)c1ccc2[nH]c(=O)oc2c1`, the GI50 in the test on NCI-H226, in the test on NCI-H460, with SR, in the test with CCRF-CEM, in the test on OVCAR-3 and with TK-10 was > 100 µM (inactive) each time. Further, the GI50 with UACC-62 was > 100 µM (inactive); in the test on PC-3, > 100 µM (inactive); in the test on HT-29, > 100 µM (inactive); with SF-539, > 100 µM (inactive); in the test with SK-MEL-5, > 100 µM (inactive); in the test on HCT-15, more than 100 µM. Moreover, the GI50 with 786-0, in the test with SF-295, in the test on BT-549, in the test on SNB-19, with LOX IMVI and with SN12C was > 100 µM (inactive) in each case. Besides, the GI50 with KM12 is > 100 µM (inactive).
`O=C(O)C(O)C(O)C(O)C(O)CO.[Ba+2]` (centres undefined): the GI50 with NCI-H226, in the test on NCI-H460, in the test on SR, in the test with CCRF-CEM, with OVCAR-3 and in the test on TK-10 was > 100 µM (inactive) in each case. The GI50 in the test on UACC-62 was > 100 µM (inactive); with PC-3 it was > 100 µM (inactive); in the test with HT-29, > 100 µM (inactive); in the test on SF-539, > 100 µM (inactive); in the test on SK-MEL-5, > 100 µM (inactive); in the test with HCT-15 it was more than 100 µM. Moreover, the GI50 in the test on 786-0, in the test on SF-295, with BT-549, in the test with SNB-19, in the test with LOX IMVI and with SN12C was > 100 µM (inactive) in each case. Further, in the test on KM12, the GI50 was > 100 µM (inactive).
Turning to `COc1ccc2c(c1)C(=O)C1CCC(=O)N1C2c1ccc2c(c1)OCO2` (centres undefined), the GI50 is 15.7 µM (inactive) with NCI-H226; 23.9 µM (inactive) with NCI-H460; 4.56 µM (inactive) in the test with SR; 3.09 µM (inactive) in the test with CCRF-CEM; 3.64 µM (inactive) in the test with OVCAR-3; 30.8 µM (inactive) in the test with TK-10. Further, the GI50 is 13.6 µM (inactive) with UACC-62; 4.2 µM (inactive) in the test with PC-3; 4.12 µM (inactive) in the test on HT-29; 23 µM (inactive) in the test with SF-539; 11.4 µM (inactive) with SK-MEL-5; 12.2 µM with HCT-15. Moreover, the GI50 in the test on 786-0 is 24.8 µM (inactive); with SF-295 it was 15.9 µM (inactive); in the test on BT-549 it was 4.26 µM (inactive); in the test with SNB-19 it was 13.8 µM (inactive); in the test with LOX IMVI, 9.59 µM (inactive); in the test on SN12C it was 12.1 µM (inactive). Besides, the GI50 in the test with KM12 is 8.87 µM (inactive).
For `CC1(C)CC(=O)C2=C(C1)N(c1ccccc1)C1(O)C=CC(O)=C3C(=O)c4ccccc4C(=O)C321` (centres undefined), the GI50 in the test on NCI-H226 was 18.7 µM (inactive); with NCI-H460, 26.3 µM (inactive); in the test with SR, 8.57 µM (inactive); with CCRF-CEM it was 4.06 µM (inactive); with OVCAR-3 it was 37.8 µM (inactive); in the test on TK-10 it was 24.4 µM (inactive). The GI50 is 19.2 µM (inactive) with UACC-62; 26.2 µM (inactive) in the test with PC-3; 21.2 µM (inactive) in the test on HT-29; 27.4 µM (inactive) in the test on SF-539; 30.8 µM in the test on HCT-15; 33.1 µM (inactive) with 786-0. For the same molecule, the GI50 in the test with SF-295 is 30 µM (inactive); in the test on BT-549 it was 26.9 µM (inactive); in the test on SNB-19, 21.7 µM (inactive); in the test with LOX IMVI it was 21 µM (inactive); in the test with SN12C, 28.7 µM (inactive); in the test with KM12 it was 23 µM (inactive).
Consider `COc1ccc2c(c1)OCC1Cc3ccccc3OC21` (centres undefined), for which the GI50 in the test on NCI-H226, in the test on SR, in the test on CCRF-CEM, with OVCAR-3, in the test on TK-10 and in the test on UACC-62 was > 100 µM (inactive) in each case. Besides, the GI50 in the test with PC-3 was 98.4 µM (inactive); in the test with HT-29 it was > 100 µM (inactive); in the test on SF-539, > 100 µM (inactive); in the test with SK-MEL-5, > 10 µM (inactive); with HCT-15 it was more than 100 µM; in the test on 786-0, > 100 µM (inactive). In addition, the GI50 in the test with SF-295 was > 100 µM (inactive); with BT-549, > 100 µM (inactive); in the test on LOX IMVI, > 100 µM (inactive); with SN12C, > 100 µM (inactive); in the test on KM12, 74 µM (inactive).
`CCNC(=O)OCC1C2=C(C(=O)C(C)=C(N)C2=O)N2CC3C(N3C)C12OC` (centres undefined): the GI50 is > 87.7 µM (inactive) in the test on NCI-H226; 0.18 µM (active) in the test on NCI-H460; 1.48 µM (inactive) with SR; 4.21 µM (inactive) with CCRF-CEM; 21.9 µM (inactive) in the test with OVCAR-3; 60.1 µM (inactive) in the test with TK-10. Besides, the GI50 in the test on UACC-62 is 11.9 µM (inactive); in the test with PC-3 it was 24.5 µM (inactive); in the test on HT-29, 18.5 µM (inactive); with SF-539, 16.6 µM (inactive); with SK-MEL-5, 12.8 µM (inactive); with HCT-15 it was 14.6 µM. Besides, the GI50 with 786-0 was 10.1 µM (inactive); in the test on SF-295 it was 7.76 µM (inactive); in the test on BT-549 it was 11.5 µM (inactive); with SNB-19, 24 µM (inactive); in the test on LOX IMVI, 13.7 µM (inactive); in the test with SN12C, 13.5 µM (inactive).
With `Nc1nc(Nc2ccc(Cl)cc2)sc1C(=O)c1c[nH]c2ccccc12`, the GI50 is 19.3 µM (inactive) in the test with NCI-H226; 6.92 µM (inactive) with NCI-H460; 5.74 µM (inactive) in the test with SR; 15 µM (inactive) in the test with CCRF-CEM; 13.8 µM (inactive) with OVCAR-3; 13 µM (inactive) with TK-10. Besides, the GI50 in the test on UACC-62 is 14.9 µM (inactive); with PC-3 it was 14 µM (inactive); in the test on HT-29, 6.78 µM (inactive); with SF-539, 15.8 µM (inactive); with SK-MEL-5, 12 µM (inactive); in the test with HCT-15, 3.87 µM. Further, the GI50 in the test on 786-0 is 4.66 µM (inactive); in the test on BT-549 it was 16.9 µM (inactive); in the test with SNB-19, 14.3 µM (inactive); with LOX IMVI, 18.2 µM (inactive); in the test with SN12C, 15.5 µM (inactive); with KM12, 14 µM (inactive).
